In publication PMC11811597, “Phenomics‐Based Discovery of Novel Orthosteric Choline Kinase Inhibitors” (Angewandte Chemie (International Ed. in English), 2025):

What was measured:
[1] = system: MCF7, MDA‐MB‐231, HEK293, HepG2, U2OS and K562 cells; assay: 72 h cell viability assay (Cell Titer-Glo); type: cell-based, human; details: 0-50 μM
Description: We compared morphological fingerprints of multiple parameters to assess overall biological similarity (Biol. Sim.) (Figure 1B).
(§1) A-366 and UNC0638 were purchased from Tocris. ARIAD and V-11-07-11 were purchased from Wuxi Apptec. UNC0737 and UNC0965 were synthesised as previously described.[1] Hemicholinium-3 and pyruvate kinase/lactic dehydrogenase enzymes were purchased from Sigma Aldrich. Aqueous and organic solvents were MS-grade and acquired by Sigma Aldrich unless stated otherwise.
(§2) MDA-MB-231, MCF7 and HEK293 cells were cultured in DMEM (Gibco, #11965092) supplemented with 10% FBS. K562 were cultured in IMDM (Gibco, #12440053) supplemented with 10% FBS. HepG2 were cultured in MEM (Gibco, #11095080) supplemented with 10 % FBS. […]
cultured in McCoy’s 5A (Sigma, M8403) supplemented with 10 % FBS and 1x GlutaMAX (Gibco, #35050061). Cells were maintained at 37 °C in a humidified 5% CO2 atmosphere. Peripheral blood mononuclear cells (PBMC) were isolated from healthy blood donors by density centrifugation.
MDA-MB-231, MCF7 or HEK293 cells (7.5 × 10^4 cells/mL) were each plated into x1 white 384-well polystyrene plate (Greiner Bio-One Ltd). A-366, […] and UNC0737 were directly added to each well of the cell line plates, at final concentrations 0-50 μM and incubated for 72 h at 37 °C/ 5% CO2.
Cell Titer-Glo® reagent was added to each well and total luminescence readings were performed within 15 min using the PHERAstar FSX (BMG Labtech). The cell viability results were normalised to the DMSO control and plotted using the sigmoidal dose-response (variable slope) equation in […]
Chemical Proteomics Drug Pulldown
For lysate generation MCF7 cells were grown until approximately 80% confluency before being pelleted and washed with PBS. […]
MDA-MB-231, […], HepG2, U2OS and K562 cells following treatment with A-366, UNC0638 and UNC0737 after 72 h measured by Cell Titer Glo assay (n=3). […]

ZNF644 = assay: Competitive affinity-based chemoproteomics (UNC0965 matrix), MCF7 lysate; type: binding, human; details: 20 μM competitor, n=2
Experimental: as §1, §2
cultured in McCoy’s 5A (Sigma, M8403) supplemented with 10 % FBS and 1x GlutaMAX (Gibco, #35050061). Cells were maintained at 37 °C in a humidified 5% CO2 atmosphere. Peripheral blood mononuclear cells (PBMC) were isolated from healthy blood donors by density centrifugation. […]
Cell Titer-Glo® reagent was added to each well and total luminescence readings were performed within 15 min using the PHERAstar FSX (BMG Labtech). […]
Digested samples were analysed by nano-UPLC–MS/MS using a Dionex Ultimate 3000 nano UPLC fitted with an EASY spray column (75 μm × 500 mm, 2 μm particle size, Thermo Scientific), coupled to an Orbitrap Q Exactive instrument. […]

Compound	effect on cell viability [1]	FC vs DMSO (log2 competition), ZNF644 (ZNF644)
COc1cc2c(NC3CCN(C(C)C)CC3)nc(C3CCCCC3)nc2cc1OCCCN1CCCC1 [UNC0638]	antiproliferative effects	-2.1553
COc1cc2c(N(C)C3CCN(C(C)C)CC3)nc(C3CCCCC3)nc2cc1OCCCN1CCCC1 [UNC0737]	antiproliferative effects	0.3825
